Measurements as given in ChEMBL document CHEMBL5724914, “Linking interpersonal differences in gut microbiota composition and drug biotransformation activity” (2024).

Legend:
[1] = The drug is tested on Z-029 corresponding to rat gut metagenome with ENA study accession number: PRJEB37062 and ENA sample accession number: ERS12561828 for biotransformation under anaerobic condition. The drug concentrations were measured over 9 timepoints collected between 0 and 24 hours of incubation by liquid-chromatography-coupled mass spectrometry (LC–MS); settings: 2 µM
[2] = The drug is tested on Z-028 corresponding to mouse gut metagenome with ENA study accession number: PRJEB37062 and ENA sample accession number: ERS12561827 for biotransformation under anaerobic condition. The drug concentrations were measured over 9 timepoints collected between 0 and 24 hours of incubation by liquid-chromatography-coupled mass spectrometry (LC–MS); settings: 2 µM
[3] = The drug is tested on Z-022 corresponding to mouse gut metagenome with ENA study accession number: PRJEB37062 and ENA sample accession number: ERS12561821 for biotransformation under anaerobic condition. The drug concentrations were measured over 9 timepoints collected between 0 and 24 hours of incubation by liquid-chromatography-coupled mass spectrometry (LC–MS); settings: 2 µM
[4] = The drug is tested on Z-020 corresponding to rabbit gut metagenome with ENA study accession number: PRJEB37062 and ENA sample accession number: ERS12561819 for biotransformation under anaerobic condition. The drug concentrations were measured over 9 timepoints collected between 0 and 24 hours of incubation by liquid-chromatography-coupled mass spectrometry (LC–MS); settings: 2 µM
[5] = The drug is tested on Z-019 corresponding to rat gut metagenome with ENA study accession number: PRJEB37062 and ENA sample accession number: ERS12561818 for biotransformation under anaerobic condition. The drug concentrations were measured over 9 timepoints collected between 0 and 24 hours of incubation by liquid-chromatography-coupled mass spectrometry (LC–MS); settings: 2 µM
[6] = The drug is tested on Z-018 corresponding to pig gut metagenome with ENA study accession number: PRJEB37062 and ENA sample accession number: ERS12561817 for biotransformation under anaerobic condition. The drug concentrations were measured over 9 timepoints collected between 0 and 24 hours of incubation by liquid-chromatography-coupled mass spectrometry (LC–MS); settings: 2 µM
[7] = The drug is tested on Z-008 corresponding to metagenome with ENA study accession number: PRJEB37062 and ENA sample accession number: ERS12561808 for biotransformation under anaerobic condition. The drug concentrations were measured over 9 timepoints collected between 0 and 24 hours of incubation by liquid-chromatography-coupled mass spectrometry (LC–MS); settings: 2 µM
[8] = The drug is tested on WLS-310 corresponding to human gut metagenome with ENA study accession number: PRJEB37062 and ENA sample accession number: ERS12561785 for biotransformation under anaerobic condition. The drug concentrations were measured over 9 timepoints collected between 0 and 24 hours of incubation by liquid-chromatography-coupled mass spectrometry (LC–MS); settings: 2 µM
[9] = The drug is tested on WLS-098 corresponding to human gut metagenome with ENA study accession number: PRJEB37062 and ENA sample accession number: ERS12561754 for biotransformation under anaerobic condition. The drug concentrations were measured over 9 timepoints collected between 0 and 24 hours of incubation by liquid-chromatography-coupled mass spectrometry (LC–MS); settings: 2 µM
[10] = The drug is tested on WLS-069 corresponding to human gut metagenome with ENA study accession number: PRJEB37062 and ENA sample accession number: ERS12561748 for biotransformation under anaerobic condition. The drug concentrations were measured over 9 timepoints collected between 0 and 24 hours of incubation by liquid-chromatography-coupled mass spectrometry (LC–MS); settings: 2 µM
[11] = The drug is tested on WLS-039 corresponding to human gut metagenome with ENA study accession number: PRJEB37062 and ENA sample accession number: ERS12561746 for biotransformation under anaerobic condition. The drug concentrations were measured over 9 timepoints collected between 0 and 24 hours of incubation by liquid-chromatography-coupled mass spectrometry (LC–MS); settings: 2 µM
[12] = The drug is tested on WLS-038 corresponding to human gut metagenome with ENA study accession number: PRJEB37062 and ENA sample accession number: ERS12561745 for biotransformation under anaerobic condition. The drug concentrations were measured over 9 timepoints collected between 0 and 24 hours of incubation by liquid-chromatography-coupled mass spectrometry (LC–MS); settings: 2 µM
[13] = The drug is tested on WLS-006 corresponding to human gut metagenome with ENA study accession number: PRJEB37062 and ENA sample accession number: ERS12561741 for biotransformation under anaerobic condition. The drug concentrations were measured over 9 timepoints collected between 0 and 24 hours of incubation by liquid-chromatography-coupled mass spectrometry (LC–MS); settings: 2 µM
[14] = human gut metagenome, 24 h, 2 µM
[15] = human gut metagenome, 24 h, 2 µM; remark: listed apart in the source
[16] = human gut metagenome, 24 h, 2 µM; remark: listed apart in the source
[17] = human gut metagenome, 24 h, 2 µM; remark: listed apart in the source
[18] = human gut metagenome, 24 h, 2 µM; remark: listed apart in the source
[19] = The drug is tested on WLS-073 corresponding to human gut metagenome with ENA study accession number: PRJEB37062 and ENA sample accession number: ERS12561749 for biotransformation under anaerobic condition. The drug concentrations were measured over 9 timepoints collected between 0 and 24 hours of incubation by liquid-chromatography-coupled mass spectrometry (LC–MS); settings: 2 µM
[20] = human gut metagenome, 24 h, 2 µM; remark: listed apart in the source
Further: call rule not given here.

Compound: CN1C[C@H](C(=O)N[C@]2(C)O[C@@]3(O)[C@@H]4CCCN4C(=O)[C@H](Cc4ccccc4)N3C2=O)C[C@@H]2c3cccc4[nH]cc(c34)C[C@H]21.CS(=O)(=O)O [DIHYDROERGOTAMINE MESYLATE]
- Bacterial Biotransformation [1]: Compound NOT metabolized
- Bacterial Biotransformation [2]: Compound NOT metabolized
- Bacterial Biotransformation [3]: Compound metabolized
- Bacterial Biotransformation [4]: Compound NOT metabolized
- Bacterial Biotransformation [5]: Compound NOT metabolized
- Bacterial Biotransformation [6]: Compound NOT metabolized
- Bacterial Biotransformation [7]: Compound NOT metabolized

Compound: COc1cc2nc(N3CCN(C(=O)C4COc5ccccc5O4)CC3)nc(N)c2cc1OC.CS(=O)(=O)O (configuration not stated) [DOXAZOSIN MESYLATE]
- Bacterial Biotransformation [1]: Compound NOT metabolized
- Bacterial Biotransformation [2]: Compound NOT metabolized
- Bacterial Biotransformation [3]: Compound metabolized
- Bacterial Biotransformation [4]: Compound NOT metabolized
- Bacterial Biotransformation [5]: Compound NOT metabolized
- Bacterial Biotransformation [6]: Compound metabolized
- Bacterial Biotransformation [7]: Compound NOT metabolized
- Bacterial Biotransformation [8]: Compound metabolized
- Bacterial Biotransformation [9]: Compound metabolized
- Bacterial Biotransformation [10]: Compound metabolized
- Bacterial Biotransformation [11]: Compound NOT metabolized
- Bacterial Biotransformation [12]: Compound metabolized
- Bacterial Biotransformation [13]: Compound metabolized
- Bacterial Biotransformation [14]: Compound metabolized
- Bacterial Biotransformation [15]: Compound metabolized
- Bacterial Biotransformation [16]: Compound NOT metabolized
- Bacterial Biotransformation [17]: Compound metabolized
- Bacterial Biotransformation [18]: Compound metabolized

Compound: CC(=O)OCC(CCn1cnc2cnc(N)nc21)COC(C)=O [FAMCICLOVIR]
- Bacterial Biotransformation [1]: Compound NOT metabolized
- Bacterial Biotransformation [2]: Compound metabolized
- Bacterial Biotransformation [3]: Compound NOT metabolized
- Bacterial Biotransformation [4]: Compound metabolized
- Bacterial Biotransformation [5]: Compound NOT metabolized
- Bacterial Biotransformation [7]: Compound metabolized
- Bacterial Biotransformation [8]: Compound metabolized
- Bacterial Biotransformation [9]: Compound metabolized
- Bacterial Biotransformation [19]: Compound metabolized
- Bacterial Biotransformation [10]: Compound metabolized
- Bacterial Biotransformation [11]: Compound metabolized
- Bacterial Biotransformation [12]: Compound metabolized
- Bacterial Biotransformation [13]: Compound metabolized
- Bacterial Biotransformation [14]: Compound metabolized
- Bacterial Biotransformation [15]: Compound metabolized
- Bacterial Biotransformation [16]: Compound metabolized
- Bacterial Biotransformation [17]: Compound metabolized
- Bacterial Biotransformation [18]: Compound metabolized
- Bacterial Biotransformation [20]: Compound metabolized

Compound: CCCCCNC(=N)N/N=C/c1c[nH]c2ccc(OC)cc12.O=C(O)/C=C\C(=O)O [TEGASEROD MALEATE]
- Bacterial Biotransformation [1]: Compound NOT metabolized
- Bacterial Biotransformation [2]: Compound NOT metabolized
- Bacterial Biotransformation [3]: Compound NOT metabolized
- Bacterial Biotransformation [5]: Compound NOT metabolized
- Bacterial Biotransformation [6]: Compound NOT metabolized
- Bacterial Biotransformation [7]: Compound NOT metabolized
- Bacterial Biotransformation [8]: Compound NOT metabolized
- Bacterial Biotransformation [9]: Compound NOT metabolized
- Bacterial Biotransformation [19]: Compound metabolized
- Bacterial Biotransformation [10]: Compound metabolized
- Bacterial Biotransformation [11]: Compound metabolized
- Bacterial Biotransformation [13]: Compound NOT metabolized
- Bacterial Biotransformation [14]: Compound NOT metabolized
- Bacterial Biotransformation [15]: Compound NOT metabolized
- Bacterial Biotransformation [16]: Compound NOT metabolized
- Bacterial Biotransformation [17]: Compound NOT metabolized
- Bacterial Biotransformation [18]: Compound NOT metabolized
- Bacterial Biotransformation [20]: Compound NOT metabolized
